# Results published in patent US12377086B2, “Therapeutic methods, combinations and kits” (priority 2021, dated 2025).
# Assays:
# VIM-2 [1] = biological target: T1, VIM-2 (Pseudomonas aeruginosa, UniProt Q5U7L7); conditions: after incubation with inhibitor and dialysis
# Experimental: VIM-2 was diluted to 6 μM with 50 mM HEPES, pH 7.5, containing 150 mM NaCl. The diluted protein solution was used to make several 5 mL aliquots. […] One aliquot contained one molar equivalent of inhibitor (6 μM), with respect to enzyme concentration, and the second aliquot contained two molar equivalents (12 μM). One aliquot contained no inhibitor. Each aliquot was then incubated for 4 h at 4° C. Following incubation, each aliquot was dialyzed versus 500 mL of 50 mM HEPES, pH 7.5, for 4 h at 4° C. The aliquots were analyzed using ICP-AES, as previously described REF. The emission wavelengths used were 213.856, 238.892, 259.940, 231.604, and 324.754 nm for Zn, Co, Fe, Ni, and Cu, respectively.
# To further address the mode of action of 8-hydroxyquinolines, equilibrium dialysis experiments were conducted. […] EDTA, a well-known metal scavenger, inhibits all MBLs through a chelation mechanism (Bush, K.; Jacoby, G. A. Updated Functional Classification of beta-Lactamases. Antimicrobial Agents and Chemotherapy 2010, 54, 969-976).
# VIM-2 expressing E. coli = format: cell-based, Escherichia coli; conditions: VIM-2 expressing E. coli, compound with amoxicillin
# Experimental: The optical density of the cell cultured was monitored at 600 nm (OD600 nm). The cells were cultured on 0.8 g/100 ml nutrient agar plate at pH 7.0 and 37° C. […] An overnight culture of the bacterial strain was sub-cultured to 0.06 OD600 nm into the NB medium and was then seeded at max 200 μl into the wells of a 96 well microtiter plate. Samples were then incubated at 37° C. and shaken at 200 rpm for 18 h. The absorbance was measured on an ELIZA plate reader and analyzed with the Gen5™ software suite (version 1.08).
# • The data are reported as relative percentage growth compared to untreated cells.
# NDM-1 = NDM-1 (Klebsiella pneumoniae, UniProt C7C422); assay: biochemical; conditions: read-out: NDM-1 percentage inhibition, 50 μM compound, 5 nM MBL, 10 μM nitrocefin, 30 mins
# NDM-1, sequence (C7C422 whole entry, looked up, species assumed): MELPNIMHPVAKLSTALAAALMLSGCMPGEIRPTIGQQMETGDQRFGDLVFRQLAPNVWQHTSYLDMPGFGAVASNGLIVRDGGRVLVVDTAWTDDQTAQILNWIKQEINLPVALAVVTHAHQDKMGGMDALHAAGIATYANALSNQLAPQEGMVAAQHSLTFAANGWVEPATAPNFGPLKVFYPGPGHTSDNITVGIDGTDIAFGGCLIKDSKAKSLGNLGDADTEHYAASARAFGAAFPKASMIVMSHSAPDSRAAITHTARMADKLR
# Experimental: BL21 (DE3) E. coli cells containing the pET26b-ndm-1 plasmid were used to inoculate a 50 mL LB starter culture containing kanamycin (25 μg/mL). The culture was grown overnight at 37° C. The starter culture was then used to inoculate 4×1 L LB containing kanamycin (25 μg/mL). These flasks were incubated at 37° C. until culture reached an optical density of (OD600) of 0.6 to 0.8. The incubator was then set to 22° C. and the cultures were shaken for 30 min to allow them to cool. ZnCl2 ([…]) and IPTG (0.5 mM) were then added to the cultures and they were grown for 18 h at 22° C. The cells were then harvested using centrifugation (8000×g) for 10 min. The pellet was resuspended with 25 mL 50 mM HEPES, pH 7.5 containing 500 mM NaCl (Buffer B). Lysis was performed with three passes through a French Press. The lysate was centrifuged for 30 min (15,000×g) at 4° C. The supernatant was then dialyzed versus 2 L 50 mM HEPES, pH 7.5 (Buffer C) for 4 h. An FPLC was used to equilibrate a Q-Sepharose column using buffer C using a flowrate of 2.0 mL/min for 1.5 h. The lysate was then loaded onto the column and eluted with a linear NaCl gradient from 0-500 mM. Fractions containing NDM-1 were identified with SDS-PAGE. These fractions were pooled and concentrated to 2-3 mL in an Amicon ultracentrifugation concentrating unit with a YM-10 membrane. The resulting protein mixture was then loaded onto a Sephacryl S-200 gel filtration column run with 50 mM HEPES, pH 7.5 containing 150 mM NaCl (Buffer A). SDS-PAGE was used to identify fractions containing pure protein.
# (§1) To identify potential MBL inhibitors, the relative change in the formation of hydrolyzed nitrocefin between treated and untreated MBL was determined as percentage inhibition. 5 nM of each BML was pre-incubated for 10 mins with 50 μM of each compound, followed by the addition of 10 μM nitrocefin.
# (§2) Each MBL was incubated with 50 μM of each compound, followed by the addition of nitrocefin. The relative change in absorbance is reported as percentage inhibition.
# VIM-2 [2] = biological target: T1, VIM-2; assay: biochemical; conditions: read-out: VIM-2 percentage inhibition, 50 μM compound, 5 nM MBL, 10 μM nitrocefin, 30 mins
# Experimental: The pET24a-VIM-2 plasmid was transformed into competent BL21 (DE3) E. coli cells. The cells were plated onto an LB-agar plate with kanamycin (25 μg/mL) and incubated overnight at 37° C. A single colony was used to inoculate 50 mL of LB, containing 25 μg/mL kanamycin, and the culture was shaken overnight at 37° C. From the overnight culture, 10 mL were transferred to 4×IL LB medium containing 25 μg/mL kanamycin. The cultures were grown at 37° C. until an optical density (OD600 nm) of 0.6-0.8 was reached, at which point protein production was induced with IPTG (0.5 mM) and ZnCl2 (100 μM). The temperature was reduced to 20° C., and the cells were shaken for an additional 18 h. The cultures were harvested by centrifugation (8 Kxg) for 10 min at 4° C. The resulting pellets were re-suspended in 25 mL of 50 mM HEPES, pH 7.5, containing 500 mM NaCl (buffer B). The cells were lysed with three passes through a French Press. The lysate was centrifuged (15 Kxg) for 30 min at 4° C. The supernatant was dialyzed against 2 L of 50 mM HEPES, pH 7.5 (buffer A), for 4 h. Buffer A was used to equilibrate a 25 mL Q-Sepharose column using an FPLC. The sample was loaded onto the column, and proteins were eluted with a linear gradient 0-500 mM NaCl with buffer B. Fractions containing VIM-2, determined by SDS-PAGE, were pooled and concentrated to 2-3 mL in an Amicon ultraconcentrator equipped YM-10 membrane. Further purification was conducted with a Sephacryl S-200 gel filtration column using 50 mM HEPES, pH 7.5, containing 150 mM NaCl. Fractions containing pure VIM-2 were pooled, and metal analysis was performed.
# as §1, §2
# in vitro [3] = conditions: human, plasma
# Experimental: The plasma stability assay was performed in triplicate by incubating the test compound in normal human plasma at 37° C. At 0, 1, 3, 6, and 24 h, aliquots of the plasma mixture were taken and quenched with 3 volumes of acetonitrile. The samples were then vortexed and centrifuged at 14,000 rpm for 3 min at 4° C. The supernatants were collected and analyzed by LC-MS/MS to determine the remaining percentage at various time points and to calculate plasma half-life (t1/2).
# in vitro [4] = conditions: human, microsomes, pH 7.4
# Experimental: The in vitro microsomal stability assay was conducted in triplicate in human liver microsomal systems. In a typical incubation, the test compound was spiked into the reaction mixture containing 0.5 mg/mL of liver microsomal protein and 1 mM of NADPH in 0.1 M potassium phosphate buffer (pH 7.4) at 37° C. At various time points, 1 volume of reaction aliquot was taken and quenched with 3 volumes of acetonitrile. The samples were then vortexed and centrifuged at 14,000 rpm for 3 min at 4° C. The supernatants were collected and analyzed by LC-MS/MS to determine the in vitro metabolic half-life (t1/2) and intrinsic clearance (CLint).
# in vitro [5] = conditions: human, HEK293 cells
# Experimental: Human embryonic kidney cell line (HEK293) were grown in 100 mm cell culture petri dishes at 37° C. with 5% CO2 in Dulbecco's Modified Eagle's Medium high glucose medium containing 1% penicillin/streptomycin (Sigma-Aldrich, St. Louis, MO) and supplemented with 5% of fetal bovine serum (Thermo Fisher Scientific Gibco®). Cells under 10 passages and the 80% of monitored cell petri dish were used for experiment.
# Cytotoxicity of tested compounds were estimated using the MTT method. Cell viability were measured by counting viable cells by using the 3 (4,5dimethylthiazol-2-yl)-2,5-diphenyltetrazolium bromide (MTT) (Sigma-Aldrich, St. Louis, MO) colorimetric dye-reduction assay. […] Following 24 h incubation and attachment, the cells were incubated for 72 h with different concentrations of inhibitors (0.01˜100 μM) in culture media without FBS. The Control cells were supplemented only with a medium without containing FBS. All samples in 96 well plate were incubated at 37° C. at an atmosphere of 5% CO2. […] The absorbance was measured using a micro-plate reader at wavelength 590 nm. The CC50 were obtained based on a comparison with untreated cells by fitting the data to a sigmoidal dose-response equation using Graphpad Prism 6.
smiles,measurement,setting,value
"O=C(O)c1ccc2cccnc2c1O [Compound 45, 8-hydroxyquinoline-7-carboxylic acid]",metal content of VIM-2 / removal of Zn(II) from the active site,VIM-2 [1],do not inhibit VIM-2 by removal of Zn(II)
same,synergistic growth inhibition,VIM-2 expressing E. coli,over 96%
same,inhibition at 50 µM,NDM-1,99%
same,inhibition at 50 µM,VIM-2 [2],94%
same,half-life,in vitro [3],> 1440 min
same,half-life,in vitro [4],> 60 min
same,CC50 at 72 h,in vitro [5],> 100 µM
